Article PMC6695594, “Discovery of (5-Phenylfuran-2-yl)methanamine Derivatives as New Human Sirtuin 2 Inhibitors” (Molecules, 2019)

Columns and labels:
[1] = biological target: T1, human sirtuin 2 (SIRT2) (Homo sapiens, UniProt Q8IXJ6); assay: biochemical; design: Fluorogenic p2270 (Ac-Glu-Thr-Asp-Lys(Dec)-AMC) trypsin-coupled assay on recombinant human SIRT2, ex 380/em 460 nm; settings: for inhibition at 10 µM: read-out: Inhibition% ^1/SIRT2-p2270 / @ 10 μM
T1 sequence (Q8IXJ6 2-389): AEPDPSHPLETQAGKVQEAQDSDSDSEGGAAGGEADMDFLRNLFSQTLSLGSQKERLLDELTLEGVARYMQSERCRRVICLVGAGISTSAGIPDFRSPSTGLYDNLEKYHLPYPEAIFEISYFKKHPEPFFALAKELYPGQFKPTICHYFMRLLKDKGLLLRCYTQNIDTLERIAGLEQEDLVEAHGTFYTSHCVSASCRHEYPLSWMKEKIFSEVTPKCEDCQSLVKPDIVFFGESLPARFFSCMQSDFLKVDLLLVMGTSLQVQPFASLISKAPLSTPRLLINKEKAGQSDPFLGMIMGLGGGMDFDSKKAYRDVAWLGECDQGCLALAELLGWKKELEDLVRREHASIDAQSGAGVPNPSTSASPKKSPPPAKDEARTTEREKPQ
Protocol: This study tested the inhibitory activities of the synthesized compounds against recombinant human SIRT2 proteins using a fluorogenic substrate p2270(Ac-Glu-Thr-Asp-Lys(Dec)-AMC)-coupled trypsin assay. The assay buffer is 25 mM Tris–HCl pH 8.0, 150 mM NaCl, and 10% glycerol. The test compounds were added to 60 μL of reaction mixture containing SIRT2 enzymes (0.2 μM), and each compound was prepared in a 3-fold dilution series (300 μM–15 nM) with the final DMSO concentration < 1%. After incubation at 25 °C for 30 min, the reaction started by the addition of the substrate p2270 ([…]) and NAD^+([…]) at 25 °C. After 2 h, 50 μL 3~4 U/μL trypsin and 4 mM nicotinamide were added to terminate the reaction, followed by further incubation for 30 min at 25 °C. The fluorescence intensity was measured using a microplate reader (λex = 380 nm, λem = 460 nm). All determinations were performed in triplicate. The IC50 values were obtained using GraphPad Prism software as described previously. The enzyme activity assays were performed using a fluorogenic-based method, and Ac-Glu-Thr-Asp-Lys(Dec)-AMC, termed p2270, was used as the substrate. The SAR studies with all of the synthesized (5-phenylfuran-2-yl)methanamine derivatives (Table 1 and Table 2) were carried out. The compounds bearing various linkers or different substituents (A moiety) at 3- or 4-position of the [compound left out] of (5-phenylfuran-2-yl)methanamine scaffold (Table 1) were firstly investigated.

[2] = biological target: T1, human sirtuin 2 (SIRT2); assay: fluorogenic p2270 trypsin-coupled assay, recombinant human SIRT2; type: biochemical; settings: read-out: Inhibition% ^1/SIRT2-p2270 / @ 100 μM
[3] = biological target: T1, human sirtuin 2 (SIRT2); assay: as above; type: biochemical

Structure (SMILES) | inhibition at 10 µM [1] [%] | inhibition at 100 µM ([1]; read-out: Inhibition% ^1/SIRT2-p2270 / @ 100 μM) [%] | inhibition at 100 µM [2] [%] | IC50 [3] [µM]
N#C/C(=C\c1ccc(-c2cc(Cl)ccc2Cl)o1)C(=O)Nc1cccc2ncccc12 [AGK2] | 30 ± 5 | 80 ± 6 | – | –
O=C(NCc1ccc(-c2cc(Cl)ccc2Cl)o1)Nc1cccc2ncccc12 [compound 12, 1-((5-(2,5-Dichlorophenyl)furan-2-yl)methyl)-3-(quinolin-5-yl)urea] | 33 ± 3 | – | 60 ± 3 | –
CCOC(=O)c1ccc(-c2ccc(CNC(=O)Nc3cccnc3)o2)cc1 [compound 17, Ethyl 4-(5-((3-(pyridin-3-yl)ureido)methyl)furan-2-yl)benzoate] | – | – | 50 ± 4 | –
O=C(NCc1ccc(-c2ccc(C(F)(F)F)cc2)o1)Nc1cccnc1 [compound 18, 1-(Pyridin-3-yl)-3-((5-(4-(trifluoromethyl)phenyl)furan-2-yl)methyl)urea] | – | – | 40 ± 5 | –
O=C(NCc1ccc(-c2ccc(C(=O)O)cc2)o1)Nc1cccc2ncccc12 [compound 20, 4-(5-((3-(quinolin-5-yl)ureido)methyl)furan-2-yl)benzoic acid] | 35 ± 3 | – | 63 ± 5 | –
O=C(NCc1ccc(-c2ccc(C(=O)O)cc2)o1)Nc1ccccc1 [compound 21, 4-(5-((3-Phenylureido)methyl)furan-2-yl)benzoic Acid] | 33 ± 3 | – | 46 ± 4 | –

Results, then the compound that gave them:

inhibition at 10 µM [1] [%] | inhibition at 100 µM ([1]; read-out: Inhibition% ^1/SIRT2-p2270 / @ 100 μM) [%] | inhibition at 100 µM [2] [%] | IC50 [3] [µM] | Structure (SMILES)
23 ± 3 | – | 44 ± 5 | – | O=C(O)c1ccc(-c2ccc(CNC(=S)Nc3ccccc3)o2)cc1 [compound 22, 4-(5-((3-Phenylthioureido)methyl)furan-2-yl)benzoic Acid]
– | – | 43 ± 2 | – | O=C(NCc1ccc(-c2ccc(C(=O)O)c(O)c2)o1)Nc1ccccc1 [compound 24, 2-Hydroxy-4-(5-((3-phenylureido)methyl)furan-2-yl)benzoic Acid]
– | – | – | 2.47 | O=C(NCc1ccc(-c2ccc(C(=O)O)cc2)o1)Nc1cccnc1 [compound 25, 4-(5-((3-(Pyridin-3-yl)ureido)methyl)furan-2-yl)benzoic Acid]
